Columns and labels:
[1] = target: T1, intracellular kinase domain of human IGF-1R (GST fusion protein) (Homo sapiens, UniProt P08069); assay: In vitro IGF-1R kinase assay (HTRF); assay type: biochemical; conditions: ATP 20 μM, IGFRK 0.25 nM
T1 construct: IGFRK and IRK enzyme used for the assay was intracellular kinase domain of human IGF-1R; GST; made in house

[2] = system: A673 (Ewing's Sarcoma) cancer cell line; assay: Anti-proliferative assay (MTS / CCK-8); assay type: cell-based; conditions: for anti-proliferative activity as compared to compound 999: Ewing's Sarcoma cell line; for IC50: Homo sapiens, A673 (Ewing's Sarcoma), 72 hours, 100 ng/mL IGF, read-out: Anti-proliferation IC50
Protocol: Anti-proliferative potential of compounds was tested using various cell lines (details provided in Table 2) by MTS (Promega, Cat # G1111), a tetrazolium compound ((3-(4,5-dimethylthiazol-2-yl)-5-(3-carboxymethoxyphenyl)-2-(4-sulphophenyl)-2Htetrazolium, inner salt; MTS) and Cell Counting kit-8 (CCK-8 a Dojindo's highly watersoluble tetrazolium salt of WST-8 [2-(2-methoxy-4-nitrophenyl)-3-(4-nitrophenyl)-5-(2,4-disulfophenyl)-2H-tetrazolium, monosodium salt]). MTS is a colorimetric assay for determining the number of viable cells in proliferation, cytotoxicity or chemosensitivity assays. This is used with an electron coupling reagent PMS (Phenazine methosulfate). MTS is bioreduced by cells into a formazan that is soluble in tissue culture medium. The absorbance of the formazan at 490 nm can be measured directly from 96 well assay plates without additional processing. Dehydrogenase enzymes found in metabolically active cells accomplish the conversion of MTS into the aqueous soluble formazan. The quantity of formazan product is directly proportional to the number of living cells in culture. In CCK-8, WST-8 is reduced by dehydrogenases in cells to give a yellow colored product formazan, which is measured at 450 nm.
For experimental purposes, cells were seeded at a density of 3000-5000 cells per well in 180 μL/well volume in transparent 96 well tissue culture plate (NUNC, USA) and incubated overnight at 37° C., 5% CO2. Next day before adding compound the medium was replaced and 180 μL, of fresh medium added with the 100 ng/mL IGF without FCS followed by addition of 20 μL of 10× compound (10 mM stock made in DMSO and then further dilutions were made in medium, final DMSO concentration should not exceed 0.5%) and incubated for 72 hours in humidified 5% CO2 incubator at 37±1° C. After incubation medium was replaced with 200 μL of medium containing 20 μL MTS reagent per well. Plates were incubated for 3-4 hours and absorbance was measured at 490 nm on Spectrophotometer (SpectraMax, Molecular Devices). Percentage cytotoxicity and IC50 was calculated using SoftMax software. CCK-8 was used for suspension cell lines. Cell seeding and compound addition was done on same day. Following the incubation, 10 μL of CCK-8 solution was added in each well. After 4 hour incubation, the absorbance was determined at 450 nm using Spectrophotometer (SpectraMax, Molecular Devices). In every experiment, each condition was run in triplicate wells.

[3] = Oral absorption in Swiss mice; assay type: in vivo; conditions: 10 mg/kg p.o.; for Cmax / half-life / AUC(0-inf): male, mouse, plasma, po; for AUC(0-inf): read-out: AUC0-infinity
Protocol: Oral absorption of different compounds was ascertained in Swiss mice. The procedure followed was as detailed below:
Species: Swiss mice, overnight fasted state
Sex and weight: Male, in the weight range of 25-30 g
Number of animals: 18 animals divided into six groups (n=3) and bled as follows:
Formulation: Compound suspended in 0.5% carboxymethylcellulose or 0.25% methylcellulose
Blood (250 μL) is collected from the retro-orbital sinus at designated time points from each mouse using heparinized bleeding capillaries into micro-centrifuge tubes containing 5 μL EDTA (200 mM) as anticoagulant. Plasma is separated by centrifugation at 10000 rpm for 5 min and samples stored at −70° C. until bioanalysis.
On the day of analysis, plasma samples are thawed at room temperature. An aliquot (100 μL) of each plasma sample is spiked individually with 10 μL of internal standard. The samples are then vortexed for 10 seconds followed by addition of 1 mL of extraction solvent and vortexed for 5 minutes. The samples are then centrifuged at 10000 rpm for 5 minutes at 4° C. Supernatants (800 μL) are removed and transferred to glass tubes and evaporated to dryness under nitrogen. The dried residues are reconstituted using 100 μL of 90:10% v/v acetonitrile:MilliQ water. The reconstituted samples are vortexed, centrifuged and injected into LC-MS/MS for analysis. The calibration curve is prepared in the range of 0.5 to 5000 ng/mL in mouse plasma for quantitation.

CYP2D6 = target: T2, CYP2D6 (Homo sapiens, UniProt P10635); assay: CYP inhibition fluorescence assay (rhCYP450, Vivid Invitrogen kit); assay type: in vitro ADME; conditions: for inhibition at 10 uM: human, read-out: % inhibition @ 10 uM 2D6
T2 construct: purchased Invitrogen (Vivid screening kits)
T2 sequence (P10635 whole entry): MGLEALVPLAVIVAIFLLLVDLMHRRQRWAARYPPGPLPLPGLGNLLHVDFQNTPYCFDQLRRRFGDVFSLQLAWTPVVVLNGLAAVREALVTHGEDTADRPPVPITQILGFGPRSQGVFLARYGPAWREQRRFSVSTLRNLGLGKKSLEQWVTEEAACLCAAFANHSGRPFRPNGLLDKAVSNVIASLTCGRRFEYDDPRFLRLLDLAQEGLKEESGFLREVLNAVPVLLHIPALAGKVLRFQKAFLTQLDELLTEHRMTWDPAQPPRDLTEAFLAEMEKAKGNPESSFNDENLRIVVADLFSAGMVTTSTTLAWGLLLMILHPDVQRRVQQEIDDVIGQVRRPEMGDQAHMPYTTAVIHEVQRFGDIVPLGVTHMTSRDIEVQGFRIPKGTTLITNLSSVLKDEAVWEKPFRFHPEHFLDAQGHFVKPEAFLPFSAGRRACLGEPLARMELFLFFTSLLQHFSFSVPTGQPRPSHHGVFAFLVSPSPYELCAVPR
Protocol: (§1) The % inhibition @ 10 uM data was generated from an rhCYP450/fluorescence assay according to the Vivid Invitrogen screening kits. The compounds were screened against 5 CYP450 (1A2, 2C9, 2C19, 2D6, and 3A4) isoforms. CYP3A4 constitutes 28% of the human hepatic CYP and is responsible for metabolism of 50% of all drugs. In this class of drugs, CYP3A4 is the most important CYP and thus it is highly desirable not to inhibit CYP3A4. The lower the percentage inhibition, the lower the CYP450 inhibitory liability of that specific compound.

CYP3A4 = target: T3, CYP3A4 (Homo sapiens, UniProt P08684); assay: as above; assay type: in vitro ADME; conditions: for hepatic CYP3A4 inhibition as compared to compound 999: 10 uM; for inhibition at 10 uM: human, read-out: % inhibition @ 10 uM 3A4
T3 construct: purchased Invitrogen (Vivid screening kits)
T3 sequence (P08684 whole entry): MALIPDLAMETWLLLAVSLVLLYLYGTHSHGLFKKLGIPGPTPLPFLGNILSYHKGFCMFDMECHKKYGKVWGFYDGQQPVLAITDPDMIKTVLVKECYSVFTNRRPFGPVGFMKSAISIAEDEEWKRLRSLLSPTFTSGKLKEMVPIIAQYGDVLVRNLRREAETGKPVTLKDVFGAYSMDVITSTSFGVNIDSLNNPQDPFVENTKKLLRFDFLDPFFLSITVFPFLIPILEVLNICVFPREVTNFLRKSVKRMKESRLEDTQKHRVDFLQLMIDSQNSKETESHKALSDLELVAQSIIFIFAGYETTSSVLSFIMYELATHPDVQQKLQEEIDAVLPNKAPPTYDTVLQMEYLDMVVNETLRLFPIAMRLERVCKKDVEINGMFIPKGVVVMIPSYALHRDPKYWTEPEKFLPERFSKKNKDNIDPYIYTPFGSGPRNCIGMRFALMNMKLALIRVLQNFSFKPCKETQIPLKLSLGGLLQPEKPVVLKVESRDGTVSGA
Protocol: as §1

T1 sequence (P08069 999-1274 limits assumed): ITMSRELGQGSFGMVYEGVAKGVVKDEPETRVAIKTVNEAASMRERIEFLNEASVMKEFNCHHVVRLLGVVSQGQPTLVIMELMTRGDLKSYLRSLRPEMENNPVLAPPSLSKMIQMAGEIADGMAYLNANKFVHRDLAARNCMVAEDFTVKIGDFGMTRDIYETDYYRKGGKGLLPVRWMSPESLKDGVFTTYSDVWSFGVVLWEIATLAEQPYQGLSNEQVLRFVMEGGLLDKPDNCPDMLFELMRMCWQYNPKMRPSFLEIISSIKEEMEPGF

| SMILES | IC50 [1] [nM] | IC50 [2] [nM] | AUC as compared to compound 999 [3] | Cmax as compared to compound 999 [3] | Cmax [3] [µM] | half-life [3] [h] | AUC(0-inf) [3] [µg·h/mL] | inhibition at 10 uM (CYP2D6) [%] | hepatic CYP3A4 inhibition as compared to compound 999 (CYP3A4) | inhibition at 10 uM (CYP3A4) [%] | hepatic CYP2D6 inhibition as compared to compound 999 (CYP2D6; 10 uM) | anti-proliferative activity as compared to compound 999 [2] |
| --- | --- | --- | --- | --- | --- | --- | --- | --- | --- | --- | --- | --- |
| NC(=O)c1[nH]c2ccc(Cl)cc2c1S(=O)(=O)N1CCO[C@H](COc2cccc(-c3ccccc3)c2)C1 [Compound 1, (S)-3-((2-(([1,1′-biphenyl]-3-yloxy)methyl)morpholino)sulfonyl)-5-chloro-1H-indole-2-carboxamide] | 33 | 1.8 | higher | higher | 8.56 | 5.3 | 10.9 | – | – | – | – | higher |
| COc1ccc(-c2cccc(OC[C@@H]3CN(S(=O)(=O)c4c(C(N)=O)[nH]c5ccc(Cl)cc45)CCO3)c2)cn1 [Compound 7, (S)-5-chloro-3-((2-((3-(6-methoxypyridin-3-yl)phenoxy)methyl)morpholino)sulfonyl)-1H-indole-2-carboxamide] | 15.1 | 0.6 | higher | higher | 2.2 | 0.9 | 1.94 | – | – | – | – | higher |
| CCOc1ccc(-c2cccc(OC[C@@H]3CN(S(=O)(=O)c4c(C(N)=O)[nH]c5ccc(Cl)cc45)CCO3)c2)cn1 [Compound 17, (S)-5-chloro-3-((2-((3-(6-ethoxypyridin-3-yl)phenoxy)methyl)morpholino)sulfonyl)-1H-indole-2-carboxamide] | 10 | – | – | – | – | – | – | 13 | reduced | 2 | – | – |
| Cc1ccc(OC[C@@H]2CN(S(=O)(=O)c3c(C(N)=O)[nH]c4ccc(Cl)cc34)CCO2)cc1-c1ccccc1 [Compound 20, (S)-5-chloro-3-((2-(((6-methyl-[1,1′-biphenyl]-3-yl)oxy)methyl)morpholino)sulfonyl)-1H-indole-2-carboxamide] | 140 | – | higher | higher | 1.98 | 2.1 | 4.71 | 25 | reduced | 2 | – | – |
| NC(=O)c1[nH]c2ccc(Cl)cc2c1S(=O)(=O)N1CCO[C@H](COc2ccc(-c3ccncc3)cc2)C1 [Compound 32, (S)-5-chloro-3-((2-((4-(pyridin-4-yl)phenoxy)methyl)morpholino)sulfonyl)-1H-indole-2-carboxamide] | 3.5 | – | higher | higher | 2.78 | 2.8 | 3.19 | – | – | – | – | – |
| Cc1cc(-c2ccc(OC[C@@H]3CN(S(=O)(=O)c4c(C(N)=O)[nH]c5ccc(Cl)cc45)CCO3)cc2)ccn1 [Compound 51, (S)-5-chloro-3-((2-((4-(2-methylpyridin-4-yl)phenoxy)methyl)morpholino)sulfonyl)-1H-indole-2-carboxamide] | 4.3 | 0.15 | higher | higher | 2.55 | 1 | 3.25 | 34 | reduced | 13 | – | higher |
| NC(=O)c1[nH]c2ccc(Cl)cc2c1S(=O)(=O)N1CCO[C@H](COc2ccc(-c3ncccn3)cc2)C1 [Compound 53, (S)-5-chloro-3-((2-((4-(pyrimidin-2-yl)phenoxy)methyl)morpholino)sulfonyl)-1H-indole-2-carboxamide] | 6.4 | – | – | – | – | – | – | 0 | – | 37 | reduced | – |

The next lines start with results.

| IC50 [1] [nM] | IC50 [2] [nM] | AUC as compared to compound 999 [3] | Cmax as compared to compound 999 [3] | Cmax [3] [µM] | half-life [3] [h] | AUC(0-inf) [3] [µg·h/mL] | inhibition at 10 uM (CYP2D6) [%] | hepatic CYP3A4 inhibition as compared to compound 999 (CYP3A4) | inhibition at 10 uM (CYP3A4) [%] | hepatic CYP2D6 inhibition as compared to compound 999 (CYP2D6; 10 uM) | SMILES | anti-proliferative activity as compared to compound 999 [2] |
| --- | --- | --- | --- | --- | --- | --- | --- | --- | --- | --- | --- | --- |
| 18.5 | – | higher | higher | 1.24 | 1.3 | 2.19 | – | – | – | – | NC(=O)c1[nH]c2ccc(Cl)cc2c1S(=O)(=O)N1CCO[C@H](COc2ccc(-c3ccnc(Cl)c3)cc2)C1 [Compound 84, (S)-5-chloro-3-((2-((4-(2-chloropyridin-4-yl)phenoxy)methyl)morpholino)sulfonyl)-1H-indole-2-carboxamide] | – |
| 9.3 | – | – | – | – | – | – | 16 | reduced | 24 | – | Cc1cc(OC[C@@H]2CN(S(=O)(=O)c3c(C(N)=O)[nH]c4ccc(Cl)cc34)CCO2)ccc1-c1ccnc(Cl)c1 [Compound 87, (S)-5-chloro-3-((2-((4-(2-chloropyridin-4-yl)-3-methylphenoxy)methyl)morpholino)sulfonyl)-1H-indole-2-carboxamide] | – |
| – | 3.5 | – | – | 1.2 | 1.31 | 1.05 | 13 | – | 36 | – | NC(=O)c1[nH]c2ccc(I)cc2c1S(=O)(=O)N1CCO[C@H](COc2ccccc2)C1 [Compound 999, reference compound] | – |
